# From patent publication US9067881B2, “4-tolyl-ethynyl-octahydro-indole-1-ester derivatives” (NOVARTIS AG, priority 2011, dated 2015)
# Assay: Solubility in Cl free phosphate buffer pH 6.8
# Type: physicochemical
# Conditions: aqueous buffer; Cl free phosphate buffer (0.067 M) pH 6.8
row,SMILES,solubility [µg/mL]
1,"COCC(=O)O[C@@]1(C#Cc2cccc(C)c2)CCC[C@@H]2[C@H]1CCN2C(=O)OC [Example 10, (3aR,4S,7aR)-4-(2-Methoxy-acetoxy)-4-m-tolylethynyl-octahydro-indole-1-carboxylic acid methyl ester]",47
2,"COC(=O)N1CC[C@@H]2[C@H]1CCC[C@]2(C#Cc1cccc(C)c1)OC(C)=O [Example 13, (3aR,4S,7aR)-4-Acetoxy-4-m-tolylethynyl-octahydro-indole-1-carboxylic acid methyl ester]",12
3,"CCCC(=O)O[C@@]1(C#Cc2cccc(C)c2)CCC[C@@H]2[C@H]1CCN2C(=O)OC [Example 15, (3aR,4S,7aR)-4-Butyryloxy-4-m-tolylethynyl-octahydro-indole-1-carboxylic acid methyl ester]",2
4,"CCCCCC(=O)O[C@@]1(C#Cc2cccc(C)c2)CCC[C@@H]2[C@H]1CCN2C(=O)OC [Example 17, (3aR,4S,7aR)-4-Hexanoyloxy-4-m-tolylethynyl-octahydro-indole-1-carboxylic acid methyl ester]",< 2
5,CCCCCCCC(=O)O[C@@]1(C#Cc2cccc(C)c2)CCC[C@@H]2[C@H]1CCN2C(=O)OC [Example 18],< 2
6,"CCCCC(=O)O[C@@]1(C#Cc2cccc(C)c2)CCC[C@@H]2[C@H]1CCN2C(=O)OC [Example 22, (3aR,4S,7aR)-4-Pentanoyloxy-4-m-tolylethynyl-octahydro-indole-1-carboxylic acid methyl ester]",< 2
7,"COC(=O)N1CC[C@@H]2[C@H]1CCC[C@]2(C#Cc1cccc(C)c1)OC(=O)CCC(=O)N1CCCC1 [Example 38, (3aR,4S,7aR)-4-(4-Oxo-4-pyrrolidin-1-yl-butyryloxy)-4-m-tolylethynyl-octahydro-indole-1-carboxylic acid methyl ester]",27
8,"COC(=O)N1CC[C@@H]2[C@H]1CCC[C@]2(C#Cc1cccc(C)c1)OC(=O)CCCC(N)=O [Example 55, (3aR,4S,7aR)-methyl 4-(5-amino-5-oxopentanoyloxy)-4-(m-tolylethynyl)octahydro-1H-indole-1-carboxylate]",93
9,"COC(=O)CCCC(=O)O[C@@]1(C#Cc2cccc(C)c2)CCC[C@@H]2[C@H]1CCN2C(=O)OC [Example 56, (3aR,4S,7aR)-1-(methoxycarbonyl)-4-(m-tolylethynyl)octahydro-1H-indol-4-yl methyl glutarate]",97
10,"CCN(CC)C(=O)CCC(=O)O[C@@]1(C#Cc2cccc(C)c2)CCC[C@@H]2[C@H]1CCN2C(=O)OC [Example 57, (3aR,4S,7aR)-methyl 4-(4-(diethylamino)-4-oxobutanoyloxy)-4-(m-tolylethynyl)octahydro-1H-indole-1-carboxylate]",19
11,"CNC(=O)CCC(=O)O[C@@]1(C#Cc2cccc(C)c2)CCC[C@@H]2[C@H]1CCN2C(=O)OC [Example 58, (3aR,4S,7aR)-methyl 4-(4-(methylamino)-4-oxobutanoyloxy)-4-(m-tolylethynyl)octahydro-1H-indole-1-carboxylate]",87
12,"COC(=O)N1CC[C@@H]2[C@H]1CCC[C@]2(C#Cc1cccc(C)c1)OC(=O)CCC(=O)N(C)C [Example 59, (3aR,4S,7aR)-methyl 4-(4-(dimethylamino)-4-oxobutanoyloxy)-4-(m-tolylethynyl)octa hydro-1H-indole-1-carboxylate]",< 2
13,"COC(=O)N1CC[C@@H]2[C@H]1CCC[C@]2(C#Cc1cccc(C)c1)OC(=O)CC(N)=O [Example 60, (3aR,4S,7aR)-methyl 4-(3-amino-3-oxopropanoyloxy)-4-(nm-tolylethynyl)octahydro-1H-indole-1-carboxylate]",110
14,"CNC(=O)CC(=O)O[C@@]1(C#Cc2cccc(C)c2)CCC[C@@H]2[C@H]1CCN2C(=O)OC [Example 61, (3aR,4S,7aR)-methyl 4-(3-(methylamino)-3-oxopropanoyloxy)-4-(m-tolylethynyl)octahydro-1H-indole-1-carboxylate]",11
